Experimental data reported in patent publication US20200384135A1, “CANCER IMAGING WITH THERAPY: THERANOSTICS” (Virginia Commonwealth University, priority 2010, published 2020).

Legend:
Assay type in all cases: in vivo, mice
PC3-ML-Luc metastases [1] = experiment: FDG-PET/CT, intra-cardiac PC3-ML-Luc metastasis model; settings: PCa-3, same mouse
Procedure: (§1) FIGS. 17A-E. AEG-Prom-based SPECT/CT imaging detects distant metastasis not identified by NaF- or FDG-PET/CT. The experimental metastases model, PCa-3 (n=5), was developed by intra-cardiac injection of 5×10^4 PC3-ML-Luc cells, SPECT/CT images for PCa-3 and a representative healthy control Ctrl-1 were obtained at 18-20 h after [^125I]FIAU injection, which was 66-68 h after IV administration of pAEG-HSV1tk-PEI polyplex. (17A, 17B) NaF-PET/CT, AEG-Prom SPECT/CT and FDG-PET imaging in Ctrl-1 (17A) and the PC3-ML-Luc model. PCa-3 (17B). (17D, 17E) Gross pathology of the metastatic nodules that were located on the basis of the SPECT/CT images. ([…]) Ex vivo BLI of the dissected organs, imaged within 20 min of euthanasia. […] A possible L1 lesion was detected by FDG/PET (17B). […]
(§2) Cloning of plasmid constructs. pPEG-Luc and pAEG-Luc were generated as described previously (3, 28). […] Luminescence was normalized for transfection efficiency by co-transfection with a vector expressing renilla luciferase, pGL4.74[hRluc/TK] […] After 48 h of transfection, the expression level of the Luc reporter was measured by the Dual Luciferase Reporter Assay kit (Promega). Luminescence was normalized for cell number (by μg total protein) using the BCA Protein Assay Kit (Pierce Biotechnology, Rockford, Ill.). […]

[2] = system: breast cancer metastasis model, BCa-1; experiment: Cross-comparison of PEG-Prom-mediated SPECT imaging and FDG-PET; settings: BCa-1, PET acquired same day as SPECT
Procedure: FIGS. 7A-7D. Detection and localization of metastatic masses of melanoma after the systemic administration of pPEG-HSV1 tk by SPECT-CT imaging. Transverse, coronal and sagittal views of co-registered SPECT-CT images of Mel-2 (7A) and Mel-3 (7B, 7C and 7D) from FIG. 6C. All images were obtained at 24 h after [^125I]FIAU injection, which was 70 h after the IV administration of pPEG-HSV1 tk/PEI polyplex. Gross anatomical details of the metastatic masses that were located based on the SPECT-CT images in 7A, 7B, 7C and 7D. Multiple metastatic sites were detected by SPECT-CT imaging in Mel-2 (7A, dotted circle). […] (7B) Accumulated radioactivity was detected adjacent to the thoracic mid-spine toward the left side (white arrow), which corresponded to a tumor mass at this location. […] Melanoma was uncovered immediately above the diaphragm (f, white dotted circle) and in the left inguinal lymph node, correlating with 7C and 7D. Cross-comparison of the PEG-Prom-mediated imaging and FDG-PET in abreast cancer metastasis model, BCa-1. Two nodules (Tu-1 and -2) were detected by [^125I]FIAU-SPECT near the heart and were confirmed by necropsy. […] SPECT images were acquired 48 h post-injection of [^125I]FIAU, which was 94 h after the pPEG-HSV1 tk/PEI delivery. The PET images were acquired on the same day as the SPECT data. […]

PC3-ML-Luc metastases [3] = experiment: NaF-PET/CT, intra-cardiac PC3-ML-Luc metastasis model; settings: PCa-3
Procedure: as §1, §2

OC[C@H]1OC(O)[C@H]([18F])[C@@H](O)[C@@H]1O (stereo partly drawn) [FDG, [^18F]fluorodeoxyglucose]
Detection of metastatic lesions by FDG-PET/CT (PC3-ML-Luc metastases [1]): only able to identify a lesion in the left shoulder | Detection of nodule Tu-2 (smaller nodule attached to the heart) [2]: not obvious in the PET image

[18F-].[Na+] [NaF, [^18F]NaF]
Detection of metastatic lesions by NaF-PET/CT (PC3-ML-Luc metastases [3]): failed to identify the metastases within tibia and axial skeleton
